From patent publication US11390613B2, “Azole analogues and methods of use thereof” (UNIVERSITY OF CONNECTICUT, priority 2017, dated 2022)
≈ marks a conversion by molar mass, not a printed value. Read-outs that look alike come from different tables or passages of the source.

Legend:
[1] = system: primary murine Hh-dependent MB cell line (MERP); test: Antiproliferation in primary Hh-dependent MB cells (MERP); format: cell-based; settings: Mus musculus
Procedure: Secondary In Vitro Evaluation. Based on their activity in ASZ cells, several compounds were evaluated further in a primary murine Hh-dependent MB cell line (MERP).
(§1) General Information for Cell Culture Studies Protocols for general cell culture, qPCR, and Hh inhibition ASZ cells are as previously described.
(§2) General Information for Cell Culture Studies. Protocols for general cell culture, qPCR, and Hh inhibition ASZ cells are as previously described.

[2] = Metabolic half-life and clearance (HLM); format: in vitro ADME
[3] = Parallel artificial membrane permeability assay (PAMPA); format: in vitro ADME; settings: passive permeability
From the text: (§3) Preliminary In Vitro Pharmacokinetic Assays.

[4] = Solubility
[5] = target: T1, BCRP (Homo sapiens, UniProt Q9UNQ0); test: BCRP efflux; format: in vitro ADME; settings: Table 9
T1 sequence (Q9UNQ0 1-655): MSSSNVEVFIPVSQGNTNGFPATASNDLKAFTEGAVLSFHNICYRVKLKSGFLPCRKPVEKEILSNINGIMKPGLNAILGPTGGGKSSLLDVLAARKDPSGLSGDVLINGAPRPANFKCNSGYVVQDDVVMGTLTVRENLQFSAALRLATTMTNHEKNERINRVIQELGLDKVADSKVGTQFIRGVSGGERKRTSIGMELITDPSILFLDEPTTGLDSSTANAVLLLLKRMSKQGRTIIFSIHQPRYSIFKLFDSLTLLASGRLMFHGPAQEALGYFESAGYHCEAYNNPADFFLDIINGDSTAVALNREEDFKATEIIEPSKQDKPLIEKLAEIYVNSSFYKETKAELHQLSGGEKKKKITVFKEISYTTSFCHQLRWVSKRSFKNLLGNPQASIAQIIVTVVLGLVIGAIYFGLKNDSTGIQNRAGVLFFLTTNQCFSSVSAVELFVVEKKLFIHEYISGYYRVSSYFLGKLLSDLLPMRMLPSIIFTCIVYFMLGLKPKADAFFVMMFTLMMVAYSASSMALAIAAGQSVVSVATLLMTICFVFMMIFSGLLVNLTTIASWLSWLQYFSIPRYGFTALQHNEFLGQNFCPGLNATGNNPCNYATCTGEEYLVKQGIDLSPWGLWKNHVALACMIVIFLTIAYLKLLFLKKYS
From the text: as §3

[6] = target: P-glycoprotein (P-gp) (Homo sapiens, UniProt P08183); test: P-glycoprotein (P-gp) efflux; format: in vitro ADME; settings: for P-gp: Table 9; for P-gp (Efflux): Table P1
Sequence of P-glycoprotein (P-gp) (P08183 whole entry): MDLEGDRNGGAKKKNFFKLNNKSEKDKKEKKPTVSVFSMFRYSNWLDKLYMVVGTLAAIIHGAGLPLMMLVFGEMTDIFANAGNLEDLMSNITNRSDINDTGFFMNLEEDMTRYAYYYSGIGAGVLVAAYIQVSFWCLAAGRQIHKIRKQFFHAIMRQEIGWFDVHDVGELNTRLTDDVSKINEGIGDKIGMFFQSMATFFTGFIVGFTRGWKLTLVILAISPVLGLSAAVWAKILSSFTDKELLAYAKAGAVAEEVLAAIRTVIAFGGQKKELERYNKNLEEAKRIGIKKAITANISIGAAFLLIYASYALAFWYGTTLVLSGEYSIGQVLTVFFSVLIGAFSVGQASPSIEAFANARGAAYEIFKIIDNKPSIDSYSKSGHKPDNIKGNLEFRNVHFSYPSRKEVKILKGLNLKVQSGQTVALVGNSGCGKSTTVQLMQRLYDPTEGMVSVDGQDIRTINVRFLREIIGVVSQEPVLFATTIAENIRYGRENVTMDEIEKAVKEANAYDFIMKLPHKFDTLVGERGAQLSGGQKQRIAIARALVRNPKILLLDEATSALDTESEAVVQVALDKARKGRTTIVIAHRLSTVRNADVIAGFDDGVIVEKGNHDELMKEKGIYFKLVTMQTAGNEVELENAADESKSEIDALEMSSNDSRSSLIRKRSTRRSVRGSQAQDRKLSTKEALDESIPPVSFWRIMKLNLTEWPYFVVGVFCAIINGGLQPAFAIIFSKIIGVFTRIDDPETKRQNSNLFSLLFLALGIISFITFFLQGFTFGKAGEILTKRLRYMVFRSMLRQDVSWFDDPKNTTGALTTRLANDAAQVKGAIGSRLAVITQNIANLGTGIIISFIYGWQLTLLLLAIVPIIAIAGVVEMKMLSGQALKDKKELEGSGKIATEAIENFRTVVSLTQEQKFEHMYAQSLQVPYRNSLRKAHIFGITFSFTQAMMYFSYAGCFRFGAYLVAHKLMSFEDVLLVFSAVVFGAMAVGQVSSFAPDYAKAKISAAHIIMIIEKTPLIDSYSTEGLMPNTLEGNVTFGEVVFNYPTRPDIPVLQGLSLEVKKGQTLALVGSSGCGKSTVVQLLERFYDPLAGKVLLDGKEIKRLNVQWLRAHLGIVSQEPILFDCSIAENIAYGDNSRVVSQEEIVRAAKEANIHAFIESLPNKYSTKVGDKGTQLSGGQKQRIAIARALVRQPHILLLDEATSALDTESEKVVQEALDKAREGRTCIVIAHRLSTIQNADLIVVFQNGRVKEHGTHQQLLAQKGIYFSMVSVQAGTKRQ
From the text: as §3

[7] = target: CYP3A4 (Homo sapiens, UniProt P08684); test: CYP3A4 inhibition
Sequence of CYP3A4 (P08684 whole entry): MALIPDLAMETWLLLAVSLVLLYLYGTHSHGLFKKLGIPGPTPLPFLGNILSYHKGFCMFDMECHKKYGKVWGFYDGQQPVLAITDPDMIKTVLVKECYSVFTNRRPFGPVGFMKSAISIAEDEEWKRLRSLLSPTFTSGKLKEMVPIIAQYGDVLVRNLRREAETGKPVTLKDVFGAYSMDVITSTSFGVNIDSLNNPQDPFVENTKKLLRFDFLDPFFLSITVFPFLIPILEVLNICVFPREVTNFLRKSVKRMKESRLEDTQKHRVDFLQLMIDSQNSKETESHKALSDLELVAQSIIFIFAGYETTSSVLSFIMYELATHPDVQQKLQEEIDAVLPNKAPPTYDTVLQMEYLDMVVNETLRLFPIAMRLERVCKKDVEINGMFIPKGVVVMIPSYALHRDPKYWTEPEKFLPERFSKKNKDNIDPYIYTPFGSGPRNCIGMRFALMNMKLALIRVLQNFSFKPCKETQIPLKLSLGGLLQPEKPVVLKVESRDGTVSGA
Procedure: Additionally, CYP3A4 inhibition and P-glycoprotein (P-gp) efflux of each compound were evaluated.

[8] = system: Gli1 mRNA levels in the murine BCC cell line ASZ-001 (Hh pathway); test: Hh pathway inhibition: endogenous Gli1 mRNA (qRT-PCR) in ASZ-001 cells; format: cell-based; settings: for IC50: Mus musculus
Procedure: Initial Hh inhibition studies.
as §1, §2
Gene Expression Assay Protocol (ASZ-001): Cells are seeded (10,000 cells per well; 100 μL total volume per well) in a 96-well tissue culture plate. After 24 h of incubation (37° C., 5% CO2), growth media was removed and replaced with low FBS media. Cells were incubated for an additional 24 h. After this time, DMSO (vehicle control) and liposomes (Aqueous Solution) were added to the wells. […]
Rt-PCR Protocol: Following treatment and incubation periods, both RNA extraction and cDNA synthesis were performed using a TaqMan Cells-to-CT (fast) kit. cDNA synthesis utilized a BioRad MyCycler and was programmed according to the manufacturer's instructions. Quantitative RT-PCR was performed on an ABI 7500 system and made use of the following TaqMan Gene Expression Probes: mouse ActB (Mm00607939_s1) and mouse Gli1 (Mm00494654_m1). Relative gene expression levels were computed via ΔΔCT method using GraphPad Prism. Corresponding IC50 values were calculated as mean±SEM for at least three separate experiments performed in triplicate.

[9] = system: Hh pathway; settings: background; read-out: IC50 (Hh pathway inhibitor); cited from earlier work
[10] = system: Gli1 mRNA levels in the murine BCC cell line ASZ-001 (Hh pathway); settings: background, read-out: IC50 (Hh signaling); cited from earlier work

C[C@@]1(c2ccc(Cl)cc2Cl)OC[C@@H](COc2ccc(N3CCN(c4ccc(NC(=O)c5cccnc5)cc4)CC3)cc2)O1 [Compound 13, N-(4-(4-(4-(((2R,4R)-2-(2,4-dichlorophenyl)-2-methyl-1,3-dioxolan-4-yl)methoxy)phenyl)piperazin-1-yl)phenyl)nicotinamide]
IC50 ([1]; Table 6): > 10000 nM | T1/2 (HLM, min) [2]: significantly different half-lives | PAMPA [3]: Poor | Solubility [4]: 4.2 nM (≈ 2.6 ng/mL)

C[C@]1(c2ccc(Cl)cc2Cl)OC[C@@H](COc2ccc(N3CCN(c4ccc(NC(=O)c5cccnc5)cc4)CC3)cc2)O1 [Compound 18, N-(4-(4-(4-(((2S,4R)-2-(2,4-dichlorophenyl)-2-methyl-1,3-dioxolan-4-yl)methoxy)phenyl)piperazin-1-yl)phenyl)nicotinamide]
BCRP [5]: No | P-gp [6]: No | IC50 ([1]; Table 6): 1100 ± 600 nM | T1/2 (HLM, min) [2]: significantly different half-lives | PAMPA [3]: Poor | Solubility [4]: 6.9 nM (≈ 4.27 ng/mL)

C[C@]1(c2ccc(Cl)cc2Cl)OC[C@@H](COc2ccc(N3CCN(c4ccc(NC(=O)c5cccc(O)c5)cc4)CC3)cc2)O1 [Compound 30, N-(4-(4-(4-(((2S,4R)-2-(2,4-dichlorophenyl)-2-methyl-1,3-dioxolan-4-yl)methoxy)phenyl)piperazin-1-yl)phenyl)-3-hydroxybenzamide]
IC50 ([7]; read-out: CYP3A4, Table 9): 11400 nM | IC50 ([1]; Table 6): 350 ± 60 nM | T1/2 (HLM, min) [2]: did not significantly change | PAMPA [3]: Poor | Solubility [4]: 1.6 nM (≈ 1.02 ng/mL)

C[C@@]1(c2ccc(Cl)cc2Cl)OC[C@@H](COc2ccc(N3CCN(c4ccc(NC(=O)NN)cc4)CC3)cc2)O1 [Compound 39, N-(4-(4-(4-(((2R,4R)-2-(2,4-dichlorophenyl)-2-methyl-1,3-dioxolan-4-yl)methoxy)phenyl)piperazin-1-yl)phenyl)hydrazinecarboxamide]
IC50 [7]: > 30000 nM | IC50 ([1]; Table 8): 500 ± 400 nM | T1/2 (HLM, min) [2]: 20.1 ± 0.6 min | Solubility [4]: 9.3 nM (≈ 5.32 ng/mL)

C[C@]1(c2ccc(Cl)cc2Cl)OC[C@@H](COc2ccc(N3CCN(c4ccc(NC(=O)NN)cc4)CC3)cc2)O1 [Compound 40, N-(4-(4-(4-(((2S,4R)-2-(2,4-dichlorophenyl)-2-methyl-1,3-dioxolan-4-yl)methoxy)phenyl)piperazin-1-yl)phenyl)hydrazinecarboxamide]
IC50 [7]: > 30000 nM | IC50 ([1]; Table 8): 2800 ± 900 nM | T1/2 (HLM, min) [2]: 11.5 ± 0.1 min | Solubility [4]: 1.4 nM (≈ 0.801 ng/mL)

CC[C@@H](C)n1ncn(-c2ccc(N3CCN(c4ccc(OC[C@@H]5CO[C@@](C)(c6ccc(F)cc6F)C5)cc4)CC3)cc2)c1=O [Compound P1, 2-((R)-sec-butyl)-4-(4-(4-(4-(((3R,5R)-5-(2,4-difluorophenyl)-5-methyltetrahydrofuran-3-yl)methoxy)phenyl)-piperazin-1-yl)phenyl)-2,4-dihydro-3H-1,2,4-triazol-3-one]
P-gp (Efflux) [6]: No Efflux | times more potent than PSZ ([8]; ASZ cells, IC50 ratio vs PSZ): 2.5 times | IC50 ([8]; ASZ001, Table P1, ASZ cells, Gli1 mRNA, 48 h incubation, read-out: IC50): 0.19 µM | CYP3A4 IC50 (μM) ([7]; Table P1): decreased CYP3A4 inhibition | IC50 ([7]; human): > 20000 nM | IC50 ([1]; Table P1): 610 ± 120 nM

CCC(C)n1ncn(-c2ccc(N3CCN(c4ccc(OCC5COC(Cn6cncn6)(c6ccc(Cl)cc6Cl)O5)cc4)CC3)cc2)c1=O (stereo not shown) [ITZ, Itraconazole, reference compound]
BCRP [5]: No | P-gp [6]: No | IC50 ([8]; ASZ001, 48 h, read-out: IC50 (μM) 48 h): 0.11 ± 0.025 µM | IC50 ([8]; ASZ001, 96 h, read-out: IC50 (μM) 96 h): 0.14 ± 0.012 µM | IC50 [9]: 690 nM | T1/2 (HLM, min) [2]: 27.0 ± 6.2 min | PAMPA [3]: Moderate | Solubility [4]: 800 nM (≈ 565 ng/mL)

CC[C@@H]([C@H](C)O)n1ncn(-c2ccc(N3CCN(c4ccc(OC[C@@H]5CO[C@@](Cn6cncn6)(c6ccc(F)cc6F)C5)cc4)CC3)cc2)c1=O [PSZ, Posaconazole]
P-gp (Efflux) [6]: substrate for P-gp | IC50 ([8]; ASZ001, 48 h): 0.5 ± 0.1 µM | IC50 [10]: 540 nM
